# Results from US20250066864A1, “METHODS FOR IDENTIFYING ADAR1 INHIBITORS, AND COMPOSITIONS AND METHODS OF USE IN TREATING CANCER” (The Wistar Institute of Anatomy and Biology, priority 2021, published 2025).
# “Also recorded” adds a separate entry of the source. Where two headings read alike, the source gives them in different places.
# Key:
# [1] = system: IMR90 normal fibroblast cells; assay: Apo Tox-Glo viability assay, IMR90 normal fibroblast cells; format: cell-based; conditions: 5 μM, 3 days
# Description: (§1) HeLa, U2OS, and MRI90 cells were cultured in the presence of ADAR1 inhibitors, 5 μM or 20 μM, for 3 days. Their viability was examined using the Apo Tox-Glo assay system (Promega), which measures plasma membrane penetration of glycyl-phenyl-alanyl-aminofluorocoumarin peptide. Control, 0.3% DMSO. […] Data are mean±S.D. (n=3, biological replicates).
# (§2) FIGS. 29A-29D Characterization of Compound #13 effects in cancer cells. […] Viability was examined using the Apo Tox-Glo assay system (Promega). Control, 0.3% DMSO. (FIG. 29B) Western blotting analysis of HeLa cells treated with Compound #13 (10 μM). […] (FIG. 29D) Activation of the IFN signaling pathway. HSC-4 squamous carcinoma cells were treated with Compound #13 at 10 μM (12 hrs). RNA samples were analyzed by qRT-PCR to monitor expression levels of ISGs.
# [2] = system: HeLa cells; assay: Apo Tox-Glo viability assay, HeLa cells; format: cell-based, human; conditions: 5 μM, 3 days
# Description: as §1, §2
# [3] = biological target: T1, ADAR1p110 (Homo sapiens, UniProt P55265); assay: in vitro editing assay with recombinant ADAR1p110 and dsRNA or DNA:RNA substrates; format: biochemical; conditions: for inhibitory potency of ADAR1 p110 editing activity (SAR analogs): data not shown
# T1 construct: HAT (N); FLAG (alternative preparation, not on the same molecule as HAT) (N); made in house; host or cells: Sf9 insect cells, baculovirus
# T1 sequence (P55265 1-931 isoform P55265-5): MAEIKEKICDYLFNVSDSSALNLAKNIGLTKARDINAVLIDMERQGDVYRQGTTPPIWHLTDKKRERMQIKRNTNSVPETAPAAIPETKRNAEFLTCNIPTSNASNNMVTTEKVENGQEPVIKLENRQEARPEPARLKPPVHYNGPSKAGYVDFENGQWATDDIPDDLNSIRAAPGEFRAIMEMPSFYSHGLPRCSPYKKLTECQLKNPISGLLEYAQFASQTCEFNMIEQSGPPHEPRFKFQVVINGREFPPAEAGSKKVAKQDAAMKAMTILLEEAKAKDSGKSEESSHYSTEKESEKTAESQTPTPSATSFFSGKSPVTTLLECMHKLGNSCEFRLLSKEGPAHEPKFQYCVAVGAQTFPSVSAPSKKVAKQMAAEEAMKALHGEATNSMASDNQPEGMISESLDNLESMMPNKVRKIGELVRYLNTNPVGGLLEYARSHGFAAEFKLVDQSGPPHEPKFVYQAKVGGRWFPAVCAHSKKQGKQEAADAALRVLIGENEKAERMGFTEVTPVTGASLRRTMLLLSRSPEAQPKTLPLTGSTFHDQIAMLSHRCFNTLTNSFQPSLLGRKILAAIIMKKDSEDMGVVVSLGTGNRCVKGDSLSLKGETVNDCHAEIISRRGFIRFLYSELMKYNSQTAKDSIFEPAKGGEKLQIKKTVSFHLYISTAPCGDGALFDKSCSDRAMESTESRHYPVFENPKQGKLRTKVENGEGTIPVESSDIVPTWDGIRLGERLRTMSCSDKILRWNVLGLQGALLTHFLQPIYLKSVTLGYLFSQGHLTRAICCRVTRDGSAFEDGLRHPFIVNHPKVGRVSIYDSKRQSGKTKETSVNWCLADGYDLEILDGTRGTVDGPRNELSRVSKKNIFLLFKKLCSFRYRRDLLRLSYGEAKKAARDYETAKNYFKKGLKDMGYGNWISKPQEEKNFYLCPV
# Description: FIG. 26A-FIG. 26B show determination of IC50 by in vitro editing assay. In vitro editing assay using purified ADAR1p110 protein and two different substrates, matched (left) and mismatched (right) dsRNAs, was conducted in the presence of varying concentrations of compound #1 (FIG. 26A) or #13 (FIG. 26B) in order to estimate IC50 values for these compounds. In vitro editing was carried out using HAT-ADAR1p110 or HAT-ADAR2 recombinant protein (10 nM) and two different dsRNA substrates carrying a part of the CDK13 gene sequence (5 nM) at 37° C. for 2 hrs as described previously (12). Compounds were dissolved in 100% DMSO. The in vitro assay contained DMSO at final concentration of 16%.
# The in vitro editing reaction mixture, containing 5 nM of telomere RNA:RNA duplex substrates and 75 nM of HAT-ADAR1p110-WT, FLAG-ADAR1p110-WT, or HA-ADAR1p110-EAA protein, was incubated at 37° C. for 2 h in in vitro editing buffer I (20 mM HEPES-KOH pH 7.5, 100 mM NaCl, 0.01% NP-40, 5% glycerol, 1 mM DTT). For editing of RNA:DNA hybrid substrates, in vitro editing buffer II (20 mM HEPES-KOH pH 7.5, 20 mM NaCl, 0.01% NP-40, 5% glycerol, 1 mM DTT) was used. Edited RNA or DNA strands were purified using Dynabeads MyOne Streptavidin C1 (Thermo Fisher Scientific). To remove opposite RNA or DNA strands, rNase H (NEB) or TURBO dNase (Thermo Fisher Scientific) was used, respectively. For sequencing of edited substrates, reverse transcription-PCR was carried out for RNA strands, while PCR was carried out for DNA strands. RT reactions were carried out using SuperScript III Reverse Transcriptase (Thermo Fisher Scientific), and PCR reactions were performed using Platinum Taq DNA polymerase (Thermo Fisher Scientific). PCR products were sequenced using a specific sequencing primer, and the ratio of A and G peaks in the chromatograms were analyzed by CodonCode Aligner (CodonCode Corporation).
# The 54 compounds identified in the high-throughput screen were further tested in the in vitro editing assay described in Examples 1 and 2. The in vitro editing reaction mixture, containing 5 nM of telomere RNA:RNA duplex substrates and 75 nM of HAT-ADAR1p110-WT, FLAG-ADAR1p110-WT, or HA-ADAR1p110-EAA protein, was incubated at 37° C. for 2 h in in vitro editing buffer I (20 mM HEPES-KOH pH 7.5, 100 mM NaCl, 0.01% NP-40, 5% glycerol, 1 mM DTT) with 10 microM test compound. For editing of RNA:DNA hybrid substrates, in vitro editing buffer II (20 mM HEPES-KOH pH 7.5, 20 mM NaCl, 0.01% NP-40, 5% glycerol, 1 mM DTT) was used. Edited RNA or DNA strands were purified using Dynabeads MyOne Streptavidin C1 (Thermo Fisher Scientific). To remove opposite RNA or DNA strands, Rnase H (NEB) or TuRBO Dnase (Thermo Fisher Scientific) was used, respectively. For sequencing of edited substrates, reverse transcription-PCR was carried out for RNA strands, while PCR was carried out for DNA strands. RT reactions were carried out using SuperScript III Reverse Transcriptase (Thermo Fisher Scientific), and PCR reactions were performed using Platinum Taq DNA polymerase (Thermo Fisher Scientific). PCR products were sequenced using a specific sequencing primer, and the ratio of A and G peaks in the chromatograms were analyzed by CodonCode Aligner (CodonCode Corporation).
# [4] = system: U2OS cells; assay: Apo Tox-Glo viability assay, U2OS cells; format: cell-based, human; conditions: 5 μM, 3 days
# Description: as §1, §2
# [5] = matched dsRNA substrate, read-out: IC50 estimated by in vitro editing assay, RNA:RNA
# [6] = mismatched dsRNA substrate, read-out: IC50 estimated by in vitro editing assay, RNA:mmRNA
# [7] = DNA:RNA mismatched hybrid substrate, read-out: IC50 estimated by in vitro editing assay, DNA:mmRNA
"IC50 [3, 5] [µM]","IC50 [3, 6] [µM]","IC50 [3, 7] [µM]",SMILES,viability of MRI90 (normal fibroblast) cells [1],viability of HeLa (non-ALT) cells [2],also measured
–,–,30 to 76,"Cc1cc(C)n2nc(-c3ccccc3)cc2n1 [compound 6, 5,7-dimethyl-2-phenylpyrazolo[1,5-a]pyrimidine]",very little effects,significantly decreased viability; also recorded: significantly reduced viability,viability of U2OS (ALT) cells [4]: very little effects
66.9,–,–,"N#Cc1c(-c2ccccc2)cc(SCc2ccc(Cl)cc2)n2c1nc1ccccc12 [compound 23, 1-[(4-chlorophenyl)methylsulfanyl]-3-phenylpyrido[1,2-a]benzimidazole-4-carbonitrile]",–,–,"IC50 ([3]; mismatched dsRNA substrate, adenosine position 6, read-out: IC50 estimated by in vitro editing assay, RNA:mmRNA, Position 6): 66.4 µM"
–,–,5 to 17,"CSc1[nH]nc(-c2ccc(Cl)cc2)c1C#N [compound 27, 5-(4-chlorophenyl)-3-methylsulfanyl-1H-pyrazole-4-carbonitrile]",very little effects,significantly decreased viability; also recorded: significantly reduced viability,viability of U2OS (ALT) cells [4]: very little effects
–,–,1.5 to 3,"CSc1nc(SC)c(C#N)c(-c2ccco2)n1 [compound 52, 4-(furan-2-yl)-2,6-bis(methylsulfanyl)pyrimidine-5-carbonitrile]",–,–,"inhibition of editing of A:U matched dsRNA ([3]; matched dsRNA substrate, FIG. 25C, 10 microM test compound): not A:U matched dsRNA; inhibition of editing of A-C mismatched dsRNA ([3]; mismatched dsRNA substrate, FIG. 25C, 10 microM test compound): inhibited A-C mismatched dsRNA; inhibition of editing of A-C mismatched dsRNA ([3]; mismatched dsRNA substrate, FIG. 25C, 10 microM test compound, listed as #52): more specific inhibitory effects on adenosine at A-C mismatched base pairs"

# Continued, compound first:
SMILES,"IC50 [3, 5] [µM]","IC50 [3, 6] [µM]","IC50 [3, 7] [µM]",viability of MRI90 (normal fibroblast) cells [1],viability of HeLa (non-ALT) cells [2],also measured
"NC(=NOC(=O)c1ccc([N+](=O)[O-])o1)c1ccc(OCc2ccc(Cl)cc2)c(Cl)c1 [Compound #1, [[amino-[3-chloro-4-[(4-chlorophenyl)methoxy]phenyl]methylidene]amino]5-nitrofuran-2-carboxylate]",27,33,–,very little effects,significantly decreased viability; also recorded: significantly reduced viability,–
O=C(Nc1ccccc1)c1sc2ccccc2c1Cl [Compound #13-Analog 1],–,–,–,–,–,inhibitory potency of ADAR1 p110 editing activity (SAR analogs) [3]: complete loss of inhibitory potency; also recorded: inactive compound
N#Cc1ccccc1NC(=O)c1sc2ccccc2c1Cl [Compound #13-Analog 2],–,–,–,–,–,inhibitory potency of ADAR1 p110 editing activity (SAR analogs) [3]: weaker but retained A-to-I editing inhibitory activity
"Cc1cc(C)n(-c2ccc(N3CCSCC3)nn2)n1 [compound 37, 4-[6-(3,5-dimethylpyrazol-1-yl)pyridazin-3-yl]thiomorpholine]",–,46,3 to 10,–,–,"IC50 ([3]; matched dsRNA substrate, adenosine position 2, read-out: IC50 estimated by in vitro editing assay, RNA:RNA, Position 2): 68.5 µM; IC50 ([3]; matched dsRNA substrate, adenosine positions 3 & 6, read-out: IC50 estimated by in vitro editing assay, RNA:RNA, Position 3 & 6): 3 µM"
"COc1cc(C2=NNC(=O)CC2)cc(OC)c1OC [compound 40, 3-(3,4,5-trimethoxyphenyl)-4,5-dihydro-1H-pyridazin-6-one]",57.6,27.2,–,–,–,–
